Test results as given in patent publication US20100104661A1, “DISCONTINUOUS METHODS OF TREATING CANCER” (priority 2006, published 2010).

Columns and labels:
[1] = test system: AIDS-related Kaposi's sarcoma; settings: 135 mg/m^2 every 3 weeks versus 100 mg/m^2 every 2 weeks; cited from earlier work
[2] = test system: node-positive breast cancer; settings: adjuvant, sequentially to doxorubicin-containing chemotherapy; total population of patients with receptor-positive and receptor-negative tumors; cited from earlier work
[3] = test system: 22Rv1 prostate tumor xenografts; assay: 22Rv1 prostate tumor xenograft, first experiment (lonafarnib 3.5 days on/3.5 days off, docetaxel once weekly); assay type: in vivo, male athymic nude mice; settings: single-agent docetaxel 20 mpk i.p. once weekly; after 3 weeks (21 days)
Description: (§1) Intermittent dosing of lonafarnib at 60 mpk BID around the administration of docetaxel was tested in two experiments using the 22Rv1 androgen-independent prostate cancer xenograft model. In both experiments 22Rv1 prostate tumor xenografts were grown in male athymic nude mice. When tumor volumes were approximately 100 mm^3, the animals were randomized (n=10 per treatment group) for grouping. […] In addition, tumor regressions were observed when intermittent lonafarnib was combined with docetaxel.
In the first experiment (see FIG. 1) male mice (n=10 per treatment group) bearing 22Rv1 tumor xenografts were treated with lonafarnib administered at either 30 mpk BID continuously or 60 mpk BID intermittently (3.5 days on/3.5 days off). Docetaxel was administered at 20 mpk once weekly after the fourth dose of lonafarnib. Tumor volumes were measured twice weekly. After 3 weeks (21 days) of treatment, single-agent docetaxel inhibited 22Rv1 tumor growth by 66%. Continuous treatment with single-agent lonafarnib at 30 mpk BID inhibited tumor growth by 85% and intermittent dosing of single-agent lonafarnib at 60 mpk BID inhibited tumor growth by 80%. When combined with weekly administration of docetaxel, continuous treatment with 30 mpk BID lonafarnib caused 22Rv1 tumors to regress by 23%. However, when combined with docetaxel, intermittent lonafarnib (60 mpk BID) caused the tumors to regress by 46%. […]

[4] = test system: 22Rv1 prostate tumor xenografts; assay: 22Rv1 prostate tumor xenograft, second experiment (lonafarnib 5 days on/5 days off, docetaxel once every 10 days); assay type: in vivo, male athymic nude mice; settings: single-agent docetaxel 20 mpk i.p. once every 10 days; after 24 days
Description: as §1
The second experiment (see FIG. 3) was also performed with male mice (n=10 per treatment group) bearing 22Rv1 prostate tumor xenografts that were approximately 100 mm^3 in volume. Lonafarnib was administered at 30 mpk BID continuously or 60 mpk BID intermittently (5 days on/5 days off). Docetaxel was administered at 20 mpk once every 10 days after the second dose of lonafarnib. After 24 days of treatment, single-agent docetaxel inhibited 22Rv1 tumor growth by 78%. Continuous treatment with single-agent lonafarnib at 30 mpk BID inhibited tumor growth by 68% and intermittent dosing of single-agent lonafarnib at 60 mpk BID inhibited tumor growth by 78%. When combined with docetaxel, continuous treatment with 30 mpk BID lonafarnib caused 22Rv1 tumors to regress by 10%. However, when combined with docetaxel, intermittent lonafarnib (60 mpk BID) caused the tumors to regress by 37%. […]

[5] = test system: NSCLC; settings: 100 mg/m^2 in patients previously treated with chemotherapy; cited from earlier work

SMILES | toxicity of dosing schedules [1] | effect on disease-free and overall survival [2] | inhibition of 22Rv1 tumor growth [3] | inhibition of 22Rv1 tumor growth [4] | toxicity at higher dose [5]
CC(=O)O[C@H]1C(=O)[C@@]2(C)[C@H]([C@H](OC(=O)c3ccccc3)[C@]3(O)C[C@H](OC(=O)[C@H](O)[C@@H](NC(=O)c4ccccc4)c4ccccc4)C(C)=C1C3(C)C)[C@]1(OC(C)=O)CO[C@@H]1C[C@@H]2O [Taxol, paclitaxel] | more toxic than the latter | overall favorable effect on disease-free and overall survival |  |  | 
CC(=O)O[C@@]12CO[C@@H]1C[C@H](O)[C@@]1(C)C(=O)[C@H](O)C3=C(C)[C@@H](OC(=O)[C@H](O)[C@@H](NC(=O)OC(C)(C)C)c4ccccc4)C[C@@](O)([C@@H](OC(=O)c4ccccc4)[C@H]21)C3(C)C [docetaxel] |  |  | 66% | 78% | associated with increased hematologic toxicity, infection, and treatment related mortality
